Data on 28 compounds can be found in ChEMBL document CHEMBL1147699, “Studies on the novel alpha-glucosidase inhibitory activity and structure-activity relationships for andrographolide analogues” (Bioorg Med Chem Lett, 2006).

The source made the active and inactive calls. No cut-off for these calls is given here.

The target of experiment [1] is T1, Cytosolic beta-glucosidase (Homo sapiens) (UniProt Q9H227).
T1 sequence (whole entry): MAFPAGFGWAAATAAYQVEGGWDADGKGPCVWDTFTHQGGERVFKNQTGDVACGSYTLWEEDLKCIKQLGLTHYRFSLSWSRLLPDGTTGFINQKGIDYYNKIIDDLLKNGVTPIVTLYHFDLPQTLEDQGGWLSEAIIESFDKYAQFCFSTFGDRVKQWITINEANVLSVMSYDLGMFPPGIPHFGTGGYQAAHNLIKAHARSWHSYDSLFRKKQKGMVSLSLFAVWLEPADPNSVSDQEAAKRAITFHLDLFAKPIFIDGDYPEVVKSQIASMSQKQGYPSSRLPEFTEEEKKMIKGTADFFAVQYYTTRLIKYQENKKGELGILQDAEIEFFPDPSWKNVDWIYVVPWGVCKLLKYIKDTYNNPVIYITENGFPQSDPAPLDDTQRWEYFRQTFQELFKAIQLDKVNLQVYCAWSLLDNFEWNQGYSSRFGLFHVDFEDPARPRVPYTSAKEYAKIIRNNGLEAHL
As to the kind of experiment: Inhibition of beta glucosidase at 100 uM.

Experiment [2] deals with Maltase-glucoamylase (Homo sapiens) (UniProt O43451). Kind of experiment: Inhibition of alpha glucosidase at 100 uM.
Chain of Maltase-glucoamylase (Homo sapiens) (O43451 whole entry, looked up): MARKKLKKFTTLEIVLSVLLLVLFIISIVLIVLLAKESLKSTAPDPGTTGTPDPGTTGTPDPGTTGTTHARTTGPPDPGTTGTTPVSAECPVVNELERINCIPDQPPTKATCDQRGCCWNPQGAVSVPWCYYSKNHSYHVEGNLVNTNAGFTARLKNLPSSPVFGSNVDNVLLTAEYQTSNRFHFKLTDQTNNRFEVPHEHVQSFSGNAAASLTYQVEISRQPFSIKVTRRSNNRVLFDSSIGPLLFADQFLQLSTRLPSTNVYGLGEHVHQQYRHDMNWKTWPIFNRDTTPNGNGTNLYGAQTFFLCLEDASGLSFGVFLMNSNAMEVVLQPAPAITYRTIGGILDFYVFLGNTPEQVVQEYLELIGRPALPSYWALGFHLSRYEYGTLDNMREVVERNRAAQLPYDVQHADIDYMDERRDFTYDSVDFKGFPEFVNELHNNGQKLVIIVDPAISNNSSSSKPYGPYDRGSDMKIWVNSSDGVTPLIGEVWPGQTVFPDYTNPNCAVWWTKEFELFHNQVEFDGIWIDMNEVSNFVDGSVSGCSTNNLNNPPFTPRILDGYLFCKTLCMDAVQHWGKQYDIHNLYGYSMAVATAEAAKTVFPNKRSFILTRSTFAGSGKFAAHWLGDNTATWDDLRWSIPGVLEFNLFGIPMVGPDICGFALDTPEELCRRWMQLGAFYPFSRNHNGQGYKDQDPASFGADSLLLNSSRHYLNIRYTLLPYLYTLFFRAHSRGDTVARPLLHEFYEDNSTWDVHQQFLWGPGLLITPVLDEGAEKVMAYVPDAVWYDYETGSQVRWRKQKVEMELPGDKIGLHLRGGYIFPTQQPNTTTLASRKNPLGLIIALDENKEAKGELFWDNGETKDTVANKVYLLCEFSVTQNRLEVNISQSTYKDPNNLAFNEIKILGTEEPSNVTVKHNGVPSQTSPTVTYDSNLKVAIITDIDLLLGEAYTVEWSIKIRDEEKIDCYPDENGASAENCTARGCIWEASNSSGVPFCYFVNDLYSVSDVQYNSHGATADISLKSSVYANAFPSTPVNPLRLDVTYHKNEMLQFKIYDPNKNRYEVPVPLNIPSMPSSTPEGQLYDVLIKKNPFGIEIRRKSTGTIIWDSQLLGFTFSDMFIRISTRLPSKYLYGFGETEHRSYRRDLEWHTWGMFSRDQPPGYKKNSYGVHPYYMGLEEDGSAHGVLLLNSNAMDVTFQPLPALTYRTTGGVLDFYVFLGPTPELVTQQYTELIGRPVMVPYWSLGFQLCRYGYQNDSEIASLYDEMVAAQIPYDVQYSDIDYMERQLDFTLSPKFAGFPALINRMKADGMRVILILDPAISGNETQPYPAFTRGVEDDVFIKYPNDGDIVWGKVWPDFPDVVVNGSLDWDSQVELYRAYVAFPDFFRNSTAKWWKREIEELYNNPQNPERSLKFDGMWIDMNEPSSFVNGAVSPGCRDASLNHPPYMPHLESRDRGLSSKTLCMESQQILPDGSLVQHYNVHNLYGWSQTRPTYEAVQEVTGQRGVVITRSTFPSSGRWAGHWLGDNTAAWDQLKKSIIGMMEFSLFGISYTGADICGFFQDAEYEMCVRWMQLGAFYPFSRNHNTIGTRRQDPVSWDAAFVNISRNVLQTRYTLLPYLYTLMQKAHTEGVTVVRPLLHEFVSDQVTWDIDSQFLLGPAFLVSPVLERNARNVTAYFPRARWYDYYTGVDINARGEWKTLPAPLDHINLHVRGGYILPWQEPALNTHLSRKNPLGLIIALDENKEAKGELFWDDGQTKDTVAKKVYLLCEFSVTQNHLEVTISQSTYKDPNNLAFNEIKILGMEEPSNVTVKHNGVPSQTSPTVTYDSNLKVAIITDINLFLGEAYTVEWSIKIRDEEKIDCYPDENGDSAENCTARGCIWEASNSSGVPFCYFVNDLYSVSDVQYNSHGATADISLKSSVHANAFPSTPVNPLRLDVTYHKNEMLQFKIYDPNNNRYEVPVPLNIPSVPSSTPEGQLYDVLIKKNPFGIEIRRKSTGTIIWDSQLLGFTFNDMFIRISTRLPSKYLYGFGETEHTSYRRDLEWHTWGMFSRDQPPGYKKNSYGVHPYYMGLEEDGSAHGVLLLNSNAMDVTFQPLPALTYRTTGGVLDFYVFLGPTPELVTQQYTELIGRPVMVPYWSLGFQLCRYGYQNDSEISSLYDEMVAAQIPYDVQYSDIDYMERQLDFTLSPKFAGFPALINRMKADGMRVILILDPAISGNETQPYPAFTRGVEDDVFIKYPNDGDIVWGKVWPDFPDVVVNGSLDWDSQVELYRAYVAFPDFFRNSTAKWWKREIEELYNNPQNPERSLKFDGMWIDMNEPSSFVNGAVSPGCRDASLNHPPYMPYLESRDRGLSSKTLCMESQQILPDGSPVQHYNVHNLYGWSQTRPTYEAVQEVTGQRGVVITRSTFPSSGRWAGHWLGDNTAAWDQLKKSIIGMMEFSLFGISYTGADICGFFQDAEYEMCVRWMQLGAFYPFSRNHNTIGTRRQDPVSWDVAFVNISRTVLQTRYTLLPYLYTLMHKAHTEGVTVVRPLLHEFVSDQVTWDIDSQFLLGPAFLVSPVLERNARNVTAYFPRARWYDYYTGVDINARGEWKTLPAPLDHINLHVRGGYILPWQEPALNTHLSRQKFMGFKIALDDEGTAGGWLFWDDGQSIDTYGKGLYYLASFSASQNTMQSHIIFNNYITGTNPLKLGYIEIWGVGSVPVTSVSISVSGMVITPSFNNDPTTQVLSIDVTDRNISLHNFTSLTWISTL

By inhibition is commonly meant the drop in the measured response relative to a control, in per cent. As for `C=C1CC[C@@H]2[C@](C)(CO)[C@H](O)CC[C@@]2(C)[C@@H]1/C=C/C1=CC(=C/CCC)/OC1=O`, in experiment [1], the inhibition entry is “inactive”. The inhibition in experiment [2] stood at 43.5%.
`C=C1CC[C@@H]2[C@](C)(CO)[C@H](O)CC[C@@]2(C)[C@@H]1CCC1C(=O)OC[C@H]1O` (stereo not given in full): the inhibition entry in experiment [1] is “inactive”. The same compound returned an inhibition in experiment [2] of 34.2%.
With `C=C1CC[C@@H]2[C@](C)(CO)[C@H](O)CC[C@@]2(C)[C@@H]1/C=C/C1=CC(=C/C=C(/C)CCC=C(C)C)/OC1=O`, the inhibition result in experiment [2] is “inactive”.
In the case of `C=C1CC[C@@H]2[C@](C)(CO)[C@H](O)CC[C@@]2(C)[C@@H]1/C=C/C1=CC(=C/c2ccc(Cl)cc2)/OC1=O`, the inhibition entry in experiment [2] was “inactive”.
The compound `C=C1CC[C@@H]2[C@]3(C)COC(c4cc(OC)c(OC)cc4OC)O[C@@H]3CC[C@@]2(C)[C@@H]1C/C=C1/C(=O)OC[C@H]1O` (stereo not given in full) came in with an inhibition in experiment [2] of 14.5%.
With `C[C@]1(CO)[C@H]2CC[C@@]3(CO3)[C@@H](/C=C/C3=CCOC3=O)[C@]2(C)CC[C@H]1O`, the inhibition result in experiment [2] is “inactive”.
As for `C=C1CC[C@@H]2[C@](C)(CO)[C@H](O)CC[C@@]2(C)[C@@H]1C/C=C1/C(=O)OC[C@H]1O`, the inhibition result in experiment [1] and in experiment [2] was “inactive” throughout.
In turn, `C[C@]1(CO)[C@H]2CC[C@@]3(CO3)[C@@H](/C=C/C3=CC(=C/C=C/c4ccccc4)/OC3=O)[C@]2(C)CC[C@H]1O` came in with an inhibition in experiment [2] of 49.2%.
`C=C1CC[C@@H]2[C@](C)(CO)[C@H](O)CC[C@@]2(C)[C@@H]1/C=C/C1=CC(=C/c2cccc(Br)c2)/OC1=O`: the inhibition in experiment [2] amounted to 16.7%.
For `C=C1CC[C@@H]2[C@](C)(CO)[C@H](O)CC[C@@]2(C)[C@@H]1/C=C/C1=CC(=C/C)/OC1=O`, the inhibition entry in experiment [1] was “inactive”. The compound further showed an inhibition in experiment [2] of 15.1%.
Regarding `C=C1CC[C@@H]2[C@]3(C)COC(C)(C)O[C@@H]3CC[C@@]2(C)[C@@H]1C/C=C1/C(=O)OC[C@H]1O`, the inhibition entry in experiment [1] and in experiment [2] was “inactive” in each case.
On to `C=C1CC[C@@H]2[C@](C)(CO)[C@H](O)CC[C@@]2(C)[C@@H]1/C=C/C1=CC(=C/c2ccc(F)cc2)/OC1=O`, for which the inhibition entry in experiment [2] was “inactive”.
The compound `C=C1CC[C@@H]2[C@](C)(CO)[C@H](O)CC[C@@]2(C)[C@@H]1/C=C/C1=CC(=C/C=C/c2ccccc2)/OC1=O` had an inhibition in experiment [2] of 84.3%.
As to `C=C1CC[C@@H]2[C@](C)(CO)[C@H](O)CC[C@@]2(C)/C1=C/C=C1\C=COC1=O`, the inhibition result in experiment [1] and in experiment [2] was “inactive” each time.
For the compound `C=C1CC[C@@H]2[C@](C)(CO)[C@H](O)CC[C@@]2(C)[C@@H]1/C=C/C1=CC(=C(C)C)OC1=O`, the inhibition result in experiment [1] was “inactive”. Further, the inhibition in experiment [2] was found to be 17.1%.
For `C=C1CC[C@@H]2[C@]3(C)COC(CCCCCC)O[C@@H]3CC[C@@]2(C)[C@@H]1C/C=C1/C(=O)OC[C@H]1O` (stereo not given in full), the inhibition result in experiment [1] was “inactive”. In experiment [2], this compound had an inhibition of 20.1%.
For the compound `C=C1CC[C@@H]2[C@](C)(CO)[C@H](O)CC[C@@]2(C)[C@@H]1/C=C/C1=CCOC1=O`, the inhibition result in experiment [1] was “inactive”. Moreover, in experiment [2], the inhibition stood at 16.5%.
Consider `C=C1CC[C@@H]2[C@]3(C)COC(c4ccc(OC)cc4)O[C@@H]3CC[C@@]2(C)[C@@H]1C/C=C1/C(=O)OC[C@H]1O` (stereo not given in full), for which, in experiment [2], the inhibition was determined as 13.2%.
Turning to `C=C1CC[C@@H]2[C@]3(C)COC(CCCC)O[C@@H]3CC[C@@]2(C)[C@@H]1C/C=C1/C(=O)OC[C@H]1O` (stereo not given in full), the inhibition result in experiment [1] and in experiment [2] was “inactive” each time.
`C=C1CC[C@@H]2[C@]3(C)COC(c4cccc(Br)c4)O[C@@H]3CC[C@@]2(C)[C@@H]1C/C=C1/C(=O)OC[C@H]1O` (stereo not given in full): the inhibition in experiment [2] was 49.6%.
Same read-out and setting: the value for `CC(C)=C1C=C(/C=C/[C@@H]2[C@@]3(CC[C@@H]4[C@](C)(CO)[C@H](O)CC[C@]42C)CO3)C(=O)O1` was “inactive”.
`C=C1CC[C@@H]2[C@]3(C)COCO[C@@H]3CC[C@@]2(C)[C@@H]1C/C=C1/C(=O)OC[C@H]1O`: the inhibition entry in experiment [1] and in experiment [2] was “inactive” in each case.
As to `C=C1CC[C@@H]2[C@]3(C)COC(c4ccc(F)cc4)O[C@@H]3CC[C@@]2(C)[C@@H]1C/C=C1/C(=O)OC[C@H]1O` (stereo not given in full), the inhibition in experiment [2] amounted to 26.2%.
For `C=C1CC[C@@H]2[C@]3(C)COC(c4ccc(Cl)cc4)O[C@@H]3CC[C@@]2(C)[C@@H]1C/C=C1/C(=O)OC[C@H]1O` (stereo not given in full), the inhibition result in experiment [1] and in experiment [2] was “inactive” in each case.
On to `C=C1CC[C@@H]2[C@]3(C)COC(c4ccccc4OC)O[C@@H]3CC[C@@]2(C)[C@@H]1C/C=C1/C(=O)OC[C@H]1O` (stereo not given in full), for which the inhibition in experiment [2] was 5.5%.
As to `C=C1CC[C@@H]2[C@]3(C)COC(c4ccccc4)O[C@@H]3CC[C@@]2(C)[C@@H]1C/C=C1/C(=O)OC[C@H]1O` (stereo not given in full), in experiment [2], the inhibition worked out at 48.9%.
The same measure, in the same setting: the value for `C=C1CC[C@@H]2[C@](C)(CO)[C@H](O)CC[C@@]2(C)[C@@H]1/C=C/C1=CC(=C/c2ccc(OC)cc2)/OC1=O` was 100%; that for `COc1ccc(/C=C2C=C(/C=C/[C@@H]3[C@@]4(CC[C@@H]5[C@](C)(CO)[C@H](O)CC[C@]53C)CO4)C(=O)O/2)cc1` was 37.7%.
